The text below walks through data of patent US11324787B2, “Analytical methods and arrays for use in the same” (SENZAGEN AB, priority 2017, dated 2022).

Where two headings read alike, the source gives them in different places.

For data set [1] the following is noted: cited from earlier work; for binary class: sens / non-sens.
The conditions of data set [2]: cited from earlier work; for HP: human potency; for binary class (HP*): based on human potency [41] where available, otherwise according to CLP; for Human potency: class 1 representing highest potency, 6 representing non-sensitizers.
Data set [3] concerns myeloid cell line derived from MUTZ-3. Kind of data set: GARD binary classification (SVM on GARD prediction signature, 200 transcripts).
The mark [4] stands for this setting: Table 9, chemicals training set.
[5] abbreviates: chemicals of random forest training and test set.
[6] abbreviates: CLP annotation of 37 novel chemicals.
[7] abbreviates: Table 8 chemical list, GARD SVM decision value.

On to `O=[N+]([O-])c1ccc(Cl)c([N+](=O)[O-])c1` [2,4-dinitrochlorobenzene], for which the CLP in data set [1] (11 benchmark chemicals), in data set [1] (setting [4]) and in data set [1] (setting [5]) was 1A throughout. In addition, the binary class result in data set [1] (11 benchmark chemicals) and in data set [1] (setting [5]) was “sens” each time. Further, the HP in data set [2] (11 benchmark chemicals) and in data set [2] (setting [5]) was 1 each time.

Regarding `O=[N+]([O-])c1ccc(F)c([N+](=O)[O-])c1` [2,4-dinitrofluorobenzene, 2,4-Dinitrofluorobenzene], the CLP in data set [1] (setting [6]), in data set [1] (setting [4]) and in data set [1] (setting [5]) was 1A each time. The binary class entry in data set [1] (setting [5]) is “sens”. Also, the “binary class (HP*)” value in data set [2] was “S (HP 1-4 = S)”. Also, the GARD binary prediction result in data set [3] (SVM, median calibrated decision value of replicates >0 = sensitizer) is listed as “S”.

For `Nc1ccccc1O` [2-aminophenol], the HP in data set [2] (11 benchmark chemicals) and in data set [2] (setting [5]) was 2 in each case. Besides, the Human potency in data set [2] is listed as 2. Also, the “SVM DV” value in data set [3] (setting [7]) is 5.98.

On to `C=CC(=O)OCCO` [2-hydroxyethyl acrylate], for which the “SVM DV” value in data set [3] (setting [7]) is recorded as 8.87.

As for `Sc1nc2ccccc2s1` [2-mercaptobenzothiazole], the CLP in data set [1] (setting [4]) and in data set [1] (setting [5]) was 1A in each case. Besides, in data set [1] (setting [5]), the binary class entry is reported as “sens”. In addition, the Human potency in data set [2] is on record as 3. Also, the HP in data set [2] (setting [5]) is 3. Further, the “SVM DV” value in data set [3] (setting [7]) is 2.52.

Take `O=[N+]([O-])c1ccc(CBr)cc1` [4-nitrobenzylbromide]: the CLP in data set [1] (setting [4]) is 1A. Further, in data set [1] (setting [5]), the CLP is given as 1A and the binary class entry is “sens”.

For the molecule `OC/C=C/c1ccccc1` [Cinnamic alcohol], the Human potency in data set [2] was 3. Further, in data set [3] (setting [7]), the “SVM DV” value is given as 2.94.

On to `Nc1ccc(C(=O)O)cc1` [PABA], for which the Human potency in data set [2] is given as 5. The “SVM DV” value in data set [3] (setting [7]) is on record as −1.04.

Regarding `Nc1ccc(N)cc1` [PPD], in data set [2], the Human potency was 1. In addition, the “SVM DV” value in data set [3] (setting [7]) is 5.32.

For `CC1(C)S[C@@H]2[C@H](NC(=O)Cc3ccccc3)C(=O)N2[C@H]1C(=O)O` [Penicillin G], in data set [2], the Human potency is on record as 3. In data set [3] (setting [7]), the “SVM DV” value is recorded as 1.06.

In the case of `CC(O)CO` (stereo not drawn) [Propylene glycol], the Human potency in data set [2] is recorded as 5. In addition, the “SVM DV” value in data set [3] (setting [7]) was −1.18.

For `CCCCCCCCCCCCOS(=O)(=O)[O-].[Na+]` [Sodium lauryl sulfate], in data set [3] (setting [7]), the “SVM DV” value is listed as −1.52.

`CCCCCCCC/C=C\CCCCCCCC(=O)OCCOCC(OCCO)C1OCC(OCCO)C1OCCO` (stereo not drawn) [Tween 80]: the CLP entry in data set [1] (setting [4]) and in data set [1] (setting [5]) was “no cat” in each case. Also, in data set [1] (setting [5]), the binary class result is reported as “non-sens”. Moreover, the Human potency in data set [2] is given as 6. In addition, the HP in data set [2] (setting [5]) was 6. For the same molecule, the “SVM DV” value in data set [3] (setting [7]) was −1.39.

Regarding `O=Cc1ccccc1` [benzaldehyde], the “SVM DV” value in data set [3] (setting [7]) is −2.13.

For `Clc1ccccc1` [chlorobenzene], the “SVM DV” value in data set [3] (setting [7]) was −1.63.

Regarding `OCC=Cc1ccccc1` [cinnamyl alcohol], the CLP in data set [1] (setting [4]) is given as 1B. Also, in data set [1] (setting [5]), the CLP is reported as 1B and the binary class entry was “sens”. The HP in data set [2] (setting [5]) is 3.

As for `C[S+](C)[O-]` [dimethyl sulfoxide], in data set [1] (setting [5]), the CLP entry is given as “no cat” and the binary class entry is listed as “non-sens”. For the same molecule, in data set [2] (setting [5]), the HP was 6.

Turning to `O=c1c(-c2ccccc2)c1-c1ccccc1` [diphenylcyclopropenone], in data set [1] (setting [4]), the CLP is on record as 1A. In data set [1] (setting [5]), the CLP is recorded as 1A and the binary class result was “sens”. Further, the HP in data set [2] (setting [5]) is reported as 1.

In the case of `NCCN` [ethylenediamine], in data set [3] (setting [7]), the “SVM DV” value is 1.12.

Consider `C=CCc1ccc(O)c(OC)c1` [eugenol], for which, in data set [3] (setting [7]), the “SVM DV” value is 1.02.

With `C=O` [formaldehyde], the “SVM DV” value in data set [3] is given as 2.32.

`CC(C)=CCC/C(C)=C/CO` [geraniol]: the “SVM DV” value in data set [3] (setting [7]) is on record as 1.76.

Turning to `OCC(O)CO` [glycerol], in data set [2], the Human potency was 6. Moreover, the HP in data set [2] (setting [5]) is 6. In data set [3] (setting [7]), the “SVM DV” value is given as −2.05.

With `O=CC=O` [glyoxal], the “SVM DV” value in data set [3] (setting [7]) was 1.08.

Regarding `CCCCCC` [hexane], in data set [1] (setting [4]), the CLP result was “no cat”. Besides, in data set [1] (setting [5]), the CLP entry was “no cat” and the binary class result was “non-sens”. Further, in data set [2] (setting [5]), the HP is listed as 6.

With `CCCCCCC(C=O)=Cc1ccccc1` [hexylcinnamic aldehyde], the CLP in data set [1] (11 benchmark chemicals), in data set [1] (setting [4]) and in data set [1] (setting [5]) was 1B in each case. The binary class entry in data set [1] (11 benchmark chemicals) and in data set [1] (setting [5]) was “sens” each time. Besides, the HP in data set [2] (11 benchmark chemicals) and in data set [2] (setting [5]) was 5 each time. For the same molecule, the Human potency in data set [2] was 5. Further, the “SVM DV” value in data set [3] (setting [7]) is 1.24.

For `Oc1ccc(O)cc1` [hydroquinone], the CLP in data set [1] (setting [4]) and in data set [1] (setting [5]) was 1A in each case. Further, in data set [1] (setting [5]), the binary class result was “sens”. The HP in data set [2] (setting [5]) is listed as 3.

Turning to `CC(CC=O)CCCC(C)(C)O` (stereo not drawn) [hydroxycitronellal], the CLP in data set [1] (setting [4]) and in data set [1] (setting [5]) was 1B throughout. In addition, the binary class entry in data set [1] (setting [5]) was “sens”. Besides, the HP in data set [2] (setting [5]) is listed as 4.

On to `CC=Cc1ccc(O)c(OC)c1` [isoeugenol], for which the CLP in data set [1] (setting [4]) was 1A. Further, in data set [1] (setting [5]), the CLP is given as 1A and the binary class entry is recorded as “sens”. For the same molecule, in data set [2] (setting [5]), the HP is reported as 2.

`CC(C)O` [isopropanol]: in data set [1] (setting [4]), the CLP entry was “no cat”. Also, in data set [1] (setting [5]), the CLP entry is recorded as “no cat” and the binary class entry was “non-sens”. Moreover, in data set [2], the Human potency is 5. The HP in data set [2] (setting [5]) is 5. Moreover, the “SVM DV” value in data set [3] (setting [7]) was −1.37.

Turning to `NC[C@H]1O[C@H](O[C@H]2[C@H](O)[C@@H](O[C@H]3O[C@H](CO)[C@@H](O)[C@H](N)[C@H]3O)[C@H](N)C[C@@H]2N)[C@H](O)[C@@H](O)[C@@H]1O` [kanamycin A], the CLP entry in data set [1] (setting [4]) and in data set [1] (setting [5]) was “no cat” throughout. In addition, the binary class result in data set [1] (setting [5]) was “non-sens”. The “binary class (HP*)” value in data set [2] was “NS (5-6 = NS)”.

`CC(O)C(=O)O` (stereo not drawn) [lactic acid]: the HP in data set [2] (setting [5]) is 6. For the same molecule, in data set [3] (setting [7]), the “SVM DV” value is on record as −2.38.

In the case of `CCCCCCCCCCCCOC(=O)c1cc(O)c(O)c(O)c1` [lauryl gallate], the CLP in data set [1] (setting [4]) was 1A. In addition, in data set [1] (setting [5]), the CLP is 1A and the binary class entry is given as “sens”. Besides, the HP in data set [2] (setting [5]) is reported as 2.

In the case of `CC(C=O)Cc1ccc(C(C)(C)C)cc1` (stereo not drawn) [lilial], the CLP in data set [1] (setting [6]), in data set [1] (setting [4]) and in data set [1] (setting [5]) was 1B each time. In data set [1] (setting [5]), the binary class result was “sens”. The “binary class (HP*)” value in data set [2] is listed as “S (HP 1-4 = S)”.

Regarding `COC(=O)c1ccccc1O` [methyl salicylate], the CLP result in data set [1] (setting [4]) and in data set [1] (setting [5]) was “no cat” each time. Moreover, the binary class entry in data set [1] (setting [5]) is given as “non-sens”. In data set [2], the Human potency was 5. In addition, in data set [2] (setting [5]), the HP was 5. Moreover, the “SVM DV” value in data set [3] (setting [7]) is −1.53.

On to `N#CCCC(Br)(C#N)CBr` (stereo not drawn) [methyldibromo glutaronitrile], for which the CLP in data set [1] (setting [4]) is on record as 1A. In data set [1] (setting [5]), the CLP is recorded as 1A and the binary class entry is “sens”. For the same molecule, the HP in data set [2] (setting [5]) is 2.

For the molecule `CCCCCCCC(=O)O` [octanoic acid], in data set [1] (setting [4]), the CLP result is listed as “no cat”. Also, in data set [1] (setting [5]), the CLP result is “no cat” and the binary class result was “non-sens”. Moreover, in data set [2], the Human potency is given as 6. Further, in data set [2] (setting [5]), the HP is listed as 6. Further, the “SVM DV” value in data set [3] (setting [7]) was −1.19.

As to `O=C(O)c1ccc(O)cc1` [p-hydroxybenzoic acid], in data set [1] (setting [4]), the CLP result is reported as “no cat”. For the same molecule, in data set [1] (setting [5]), the CLP result is listed as “no cat” and the binary class result was “non-sens”.

As to `Nc1ccc(N)cc1` [p-phenylenediamine], the CLP in data set [1] (11 benchmark chemicals), in data set [1] (setting [4]) and in data set [1] (setting [5]) was 1A each time. Further, the binary class entry in data set [1] (11 benchmark chemicals) and in data set [1] (setting [5]) was “sens” each time.

For `Oc1ccccc1` [phenol], in data set [3], the “SVM DV” value is on record as −1.08.

With `O=C(Oc1ccccc1)c1ccccc1` [phenyl benzoate], the CLP in data set [1] (setting [4]) is listed as 1B. For the same molecule, in data set [1] (setting [5]), the CLP is given as 1B and the binary class result is on record as “sens”. Besides, in data set [2] (setting [5]), the HP is 3.

In the case of `O=CCc1ccccc1` [phenylacetaldehyde], the CLP in data set [1] (setting [4]) and in data set [1] (setting [5]) was 1B throughout. Besides, in data set [1] (setting [5]), the binary class result was “sens”.

Turning to `[K+].[K+].[O]=[Cr](=[O])([O-])[O][Cr](=[O])(=[O])[O-]` [potassium dichromate], the CLP in data set [1] (setting [4]) is given as 1A. Moreover, in data set [1] (setting [5]), the CLP was 1A and the binary class result is on record as “sens”.

For `CCCOC(=O)c1cc(O)c(O)c(O)c1` [propyl gal late], the CLP in data set [1] (Table 10, chemicals test set 1) is given as 1A.

With `Oc1cccc(O)c1` [resorcinol], the HP in data set [2] (11 benchmark chemicals) and in data set [2] (setting [5]) was 4 in each case. Moreover, the Human potency in data set [2] is given as 4. Besides, the “SVM DV” value in data set [3] (setting [7]) was 1.03.

With `O=C(O)c1ccccc1O` [salicylic acid], the Human potency in data set [2] is recorded as 6. In addition, the HP in data set [2] (setting [5]) is recorded as 6. In data set [3] (setting [7]), the “SVM DV” value is listed as −1.41.

For chloroanilin, the CLP in data set [1] (setting [4]) was 1B. In data set [1] (setting [5]), the CLP is given as 1B and the binary class entry is recorded as “sens”.

For the molecule xylene, the HP in data set [2] (setting [5]) is reported as 6. For the same molecule, the “Human potency [41]” value in data set [2] (test set) was 6.
